Each structure is given as a SMILES string.

What all share (type): biochemical, Clostridium thermocellum
Test [1] has as its system exoglucanase L3. The experiment in a line: Enzymatic hydrolysis in solution with purified exoglucanase L3, MS-TOF assay. Conditions: reaction in solution. The protocol: (§1) To verify, the exoglucanases (L3) and endoglucanase (44A) were prepared according methods well known in the literature with minor modifications. First, enzymatic hydrolysis reactions were conducted in solution with the purified enzymes using substrates 8, 9 and 10. At the completion of the reaction, the solution mixtures were transferred to the PTFE-like ACG slide, and prepared by using the same washing procedures before being subjected to MS-TOF assay.
(§2) For each carbohydrate, a specific enzyme was added: (a) is the control run without enzymes, (b) is exoglucanase L3, and (c) is endoglucanase 44A. […]
(§3) Cellulase was prepared (5 U/mL in 25 mM pH 5.05 NaOAc buffer solution). Substrate was also dissolved in NaOAc buffer solution (25 mM, pH 5.05) to give 0.5 mM substrate solution. Add 100 uL cellulase solution to 100 uL substrate solution in eppendorf to have a 2.5 U/mL cellulase solution with 0.25 mM substrate. This solution was incubated in 37° C. for 18 hours. Add 100 μL incubated solution onto the slide loaded in FAST® Frame. Put the slide in dry box to remove the water, and then use high vacuum to remove trace water. 100 μL water was used to rinse each well of the FAST® Frame multi-slide plate to solve and remove the salt of the buffer solution. Remove any residual water on the plate by high vacuum and then analyzed the slide by MALDI-TOF Ultra-Flex II.
(§4) The genomic DNA of Sulfolobus solfataricus (ATCC 35092) and Clostridium thermocellum (ATCC 27405) were obtained from the ATCC biological resource center. The Sso7d (NCBI accession number: AAK42090) gene fragment was amplified directly from the Sulfolobus solfataricus genome by polymerase chain reaction (PCR) with forward 5′ […] 3′ (SEQ ID NO: 1) and reverse 5′ […] 3′ (SEQ ID NO: 2) primers. The PCR product encoding Sso7d was digested with NdeI and BamHI and subsequently cloned into expression vector pET-28a (Novagen) to generate pET-28-Sso7d. […]

For test [2], the system named is exoglucanase L3. In words: Enzymatic hydrolysis on the PTFE-like ACG surface with exoglucanase L3, MS-TOF assay. Conditions: substrate immobilized on the PTFE-like ACG surface, 24 hours of incubation. As to the method:
as §2
(§5) For comparison and as illustrated according to implementations shown in FIG. 23, substrate 8, 9, and 10 were immobilized on the PTFE-like ACG surface and carried out the cellulase hydrolysis on the surface directly, after the same washing procedures, these slides were subjected to MS-TOF assay. […] The endoglucanase 44A can't accept compound 8 or 9 as a substrate. […] From the above results, the cellotetraose substrate 10 was the best carbohydrate to create array on the PTFE-like ACG surface for the experiments conducted. By using this array, the activity and specificity of unknown cellulase may be examined.
Cellulase was prepared (5 U/mL in 25 mM pH 5.05 NaOAc buffer solution). Substrate was also dissolved in NaOAc buffer solution (25 mM, pH 5.05) to give 0.5 mM substrate solution. Add 50 μL cellulase solution to 50 μL substrate solution onto the glass slide which was loaded in FAST® Frame multi-slide plate to have a 2.5 U/mL cellulase solution with 0.25 mM substrate. […] Put the slide in dry box to remove the water, and then use high vacuum to remove trace water. 100 uL water was used to rinse each well of the FAST® Frame multi-slide plate to solve and remove the salt of the buffer solution. Remove any residual water on the plate by high vacuum and then analyzed the slide by MALDI-TOF Ultra-Flex II.
(§6) The genomic DNA of Sulfolobus solfataricus (ATCC 35092) and Clostridium thermocellum (ATCC 27405) were obtained from the ATCC biological resource center. The Sso7d (NCBI accession number: AAK42090) gene fragment was amplified directly from the Sulfolobus solfataricus genome by polymerase chain reaction (PCR) with forward 5′ […] 3′ (SEQ ID NO: 1) and reverse 5′ […] 3′ (SEQ ID NO: 2) primers. […]

Test [3] concerns endoglucanase 44A. In words: Enzymatic hydrolysis in solution with purified endoglucanase 44A, MS-TOF assay. Conditions: reaction in solution. As to the method: as §1, §2, §3, §4
The test system of test [4] is endoglucanase 44A. The experiment in a line: Enzymatic hydrolysis on the PTFE-like ACG surface with endoglucanase 44A, MS-TOF assay. Conditions: substrate immobilized on the PTFE-like ACG surface. As to the method:
as §2, §5
Cellulase was prepared (5 U/mL in 25 mM pH 5.05 NaOAc buffer solution). Substrate was also dissolved in NaOAc buffer solution (25 mM, pH 5.05) to give 0.5 mM substrate solution. Add 50 μL cellulase solution to 50 μL substrate solution onto the glass slide which was loaded in FAST® Frame multi-slide plate to have a 2.5 U/mL cellulase solution with 0.25 mM substrate. The well of the plate was sealed and the whole assembly was incubated in 37° C. for 18 hours. Put the slide in dry box to remove the water, and then use high vacuum to remove trace water. 100 uL water was used to rinse each well of the FAST® Frame multi-slide plate to solve and remove the salt of the buffer solution. Remove any residual water on the plate by high vacuum and then analyzed the slide by MALDI-TOF Ultra-Flex II.
as §6

Take `O=C(NCCCCCO[C@@H]1O[C@H](CO)[C@@H](O[C@@H]2O[C@H](CO)[C@@H](O[C@@H]3O[C@H](CO)[C@@H](O[C@@H]4O[C@H](CO)[C@@H](O)[C@H](O)[C@H]4O)[C@H](O)[C@H]3O)[C@H](O)[C@H]2O)[C@H](O)[C@H]1O)OCCCC(F)(F)C(F)(F)C(F)(F)C(F)(F)C(F)(F)C(F)(F)C(F)(F)C(F)(F)C(F)(F)F` [Compound 10, [(4,4,5,5,6,6,7,7,8,8,9,9,10,10,11,11,12,12,12-nonadecafluorododecoxycarbonyl-amino)pentyl] ß-D-glucopyranosyl-(1→4)-ß-D-glucopyranosyl-(1→4)- -ß-D-glucopyranosyl-(1→4)-13-D-glucopyranoside]: the results for the “Cleavage of the substrate by exoglucanase L3 (in words)” value in the test with exoglucanase L3 [1] and in the test with exoglucanase L3 [2] were “quickly” and “cleaved the cellobiose quickly”, respectively. Also, the “Cleavage of the substrate by endoglucanase 44A (in words)” value is “cleaves the trisaccharide or tetrasaccharide unit” in the test on endoglucanase 44A [3] and “cleaved cellotetraose quickly” in the test with endoglucanase 44A [4].

These data come from patent US10274488B2, “Glycan arrays on PTFE-like aluminum coated glass slides and related methods” (Academia Sinica, priority 2008, dated 2019).
